One may read the half-life as how long it takes for the measured level to halve.

SMILES strings stand for the structures.

One molecule from PubChem BioAssay AID504739 (National Center for Advancing Translational Sciences (NCATS), 2011) can be followed below.

The subject of the series is mouse liver microsomes, LC-MS/MS, half-life. The experiment in a line: Inhibitors of Bloom's syndrome helicase: Metabolic Stability Profiling. To be noted: at 1 µM; hits give high values. The source says: Survival of cells and the faithful propagation of the genome depend on elaborate mechanisms of detecting and repairing DNA damage. Treatment of advanced cancer relies on radiation therapy or chemotherapy, which kill cancer cells by causing extensive DNA damage. It is often found, that cancer cells develop resistance to therapy through enhanced activity of DNA repair functions; this has led to an increased interest in developing drugs that interfere with DNA repair, which could sensitize cancer cells to conventional therapy. Bloom syndrome helicase (BLM), is important in resolving abnormal DNA structures formed during replication or homologous recombination. Shutting down the expression of BLM leads to chromosomal instability and higher radiation sensitivity in cultured cells. After the completion of a qHTS campaign, secondary assays, and rounds of medicinal chemistry, a compound was identified to be further characterized through in vitro ADME assays. Mouse liver microsomes are created through broken up endoplasmic reticulum from mouse liver. These liver microsomes contain many drug metabolizing enzymes, such as Cytochome P-450s and flavin-containing monooxygenases. Because metabolism is major way of drug clearance, this is an important result. […]
1uM of compound in incubated in mouse liver microsome; the reference compound is ketanserin. […] Samples are analyzed with LC-MS/MS.

In the case of `O=C(Nc1ccc(F)c(C(F)(F)F)c1)Nc1nnc(-c2ccncc2)s1`, the half-life is 2 h.
